Data taken from patent US20150297482A1, “MALODOR COUNTERACTING COMPOSITIONS AND METHOD FOR THEIR USE TO COUNTERACT SWEAT MALODOR” (FIRMENICH SA, priority 2009, published 2015).
Counter-ions that a name gives are not always drawn. Like-named read-outs stand apart in the source and are kept apart here.

Test system: Staphylococcus haemolyticus CNCM I-4170
Experiment: Protocol A: in-vitro malodor inhibition (free thiol groups from Cys-Gly precursor, DTNB absorbance at 412 nm)
Assay type: cell-based
Description: Further details of such a screening and % inhibition measurement and definition are described further on in this application. The precursor used, which may also be in the form of a human sweat sample, typically generates malodorant sulfur compounds when acted upon by the Staphylococcus haemolyticus cells, or by a β-lyase present in such cells. The malodor inhibition coefficient, as defined herein, reflects the % of reduction in free SH groups generated in the above-mentioned medium by the enzymatic activity of the bacterial cells when in presence of the MOC ingredient or MOC composition in question, as compared to the same measurement in their absence. […] Alternatively, the bacterial cells can be replaced by a β-lyase present in said cells. […] Detection of enzymatic activity inhibition is measured via the sulfur groups, namely thiol groups, freed from the precursor bacterial transformation, by comparison with the reference experiment in the absence of the respective MOC ingredient, said sulfur groups being detected by interaction with DTNB, a known chemical detector system for thiols. The reaction can be monitored by absorbance reading at 412 nm. The procedure can be performed indifferently with either a purified or semi-purified enzyme or intact bacterial cells, as in the case described here. Malodor inhibition coefficient is measured as a function of the percentage of free thiol groups in the medium, over time, by an absorbance method, and reflects the reduction in malodor obtained in the presence of the MOC ingredients and compositions. […] At the end of the growth phase, the bacterial cells were harvested by centrifugation at 5000 rpm for 15 min. The cell pellet was then washed with 0.1 volumes of sterile potassium phosphate buffer 0.1 M, pH 7.5. […] The precursor was used at 0.17 mM final concentration. • Detection reagent DTNB • DTNB (5,5′-Dithio-bis-(2-nitrobenzoic acid; […]

[1] = Staphylococcus haemolyticus, CNCMI4170, Table 2, 0.0012 w/v % in medium, read-out: Ingredient Malodor Inhibition Value (%)
[2] = Staphylococcus haemolyticus, CNCMI4170, Table 2, 0.0025 w/v % in medium, read-out: Ingredient Malodor Inhibition Value (%)
[3] = Staphylococcus haemolyticus, CNCMI4170, Table 2, 0.005 w/v % in medium, read-out: Ingredient Malodor Inhibition Value (%)
[4] = Staphylococcus haemolyticus, CNCMI4170, Table 2, 0.0125 w/v % in medium, read-out: Ingredient Malodor Inhibition Value (%)
[5] = Staphylococcus haemolyticus, CNCMI4170, 0.0012 w/v % in medium, read-out: Ingredient Malodor Inhibition Value (%)
[6] = Staphylococcus haemolyticus, CNCMI4170, 0.0025 w/v % in medium, read-out: Ingredient Malodor Inhibition Value (%)
[7] = Staphylococcus haemolyticus, CNCMI4170, 0.006 w/v % in medium, read-out: Ingredient Malodor Inhibition Value (%)
[8] = Staphylococcus haemolyticus, CNCMI4170, 0.0125 w/v % in medium, read-out: Ingredient Malodor Inhibition Value (%)
[9] = Staphylococcus haemolyticus, CNCMI4170, 0.025 w/v % in medium, read-out: Ingredient Malodor Inhibition Value (%)
[10] = Staphylococcus haemolyticus, CNCMI4170, 0.05 w/v % in medium, read-out: Ingredient Malodor Inhibition Value (%)
[11] = Staphylococcus haemolyticus, CNCMI4170, Table 2, 0.025 w/v % in medium, read-out: Ingredient Malodor Inhibition Value (%)
[12] = Staphylococcus haemolyticus, CNCMI4170, Table 2, 0.05 w/v % in medium, read-out: Ingredient Malodor Inhibition Value (%)
[13] = Table 2, 0.0012 w/v % in medium
[14] = Table 2, 0.0025 w/v % in medium
[15] = Table 2, 0.0125 w/v % in medium

## C[C@H]1[C@@H]2CC(C[C@@]13C=CC(=O)CC3)C2(C)C (single isomer, unassigned; (+))
0.0012 w/v % in medium
  Ingredient Malodor Inhibition Value (%): 0.00%
0.0025 w/v % in medium
  Ingredient Malodor Inhibition Value (%): 14.02%
0.006 w/v % in medium
  Ingredient Malodor Inhibition Value (%): 26.00%
0.0125 w/v % in medium
  Ingredient Malodor Inhibition Value (%): 72.64%
0.025 w/v % in medium
  Ingredient Malodor Inhibition Value (%): 75.94%
0.05 w/v % in medium
  Ingredient Malodor Inhibition Value (%): 75.68%

## CC(C)CCCC(C)CC=O (stereo not drawn) [3,7-Dimethyloctanal]
[1]
  inhibition at 0.0012 %: 0%
[2]
  inhibition at 0.0025 %: 0%
[3]
  inhibition at 0.005 %: 18.1%
[4]
  inhibition at 0.0125 %: 66.7%

## CC/C(=C\C[C@H]1CC=C(C)C1(C)C)CO [(-)-(2E)-2-Ethyl-4-[(1R)-2,2,3-trimethyl-3-cyclopenten-1-yl]-2-buten-1-ol]
[5]
  inhibition at 0.0012 %: 0%
[6]
  inhibition at 0.0025 %: 21.2%
[7]
  inhibition at 0.006 %: 70.8%
[8]
  inhibition at 0.0125 %: 80%
[9]
  inhibition at 0.025 %: 80.3%

## CCCCCCCCCCC=CC=O [2-Tridecenal (ethyl citrate solution), 2-Tridecenal]
[1]
  inhibition at 0.0012 %: 29%
[2]
  inhibition at 0.0025 %: 40.2%
[3]
  inhibition at 0.005 %: 50%
[4]
  inhibition at 0.0125 %: 81%

## CC1=CC[C@H](/C=C/C(C)(C)C(C)O)C1(C)C (single isomer, unassigned; (-)) [(-)-(1′R,E)-3,3-Dimethyl-5-(2′,2′,3′-trimethyl-3′-cyclopenten-1′-yl)-4-penten-2-ol]
0.0012 w/v % in medium
  Ingredient Malodor Inhibition Value (%): 0.00%
0.0025 w/v % in medium
  Ingredient Malodor Inhibition Value (%): 27.39%
0.006 w/v % in medium
  Ingredient Malodor Inhibition Value (%): 75.11%
0.0125 w/v % in medium
  Ingredient Malodor Inhibition Value (%): 76.95%
0.025 w/v % in medium
  Ingredient Malodor Inhibition Value (%): 76.65%

## CC1C(C)(C)C2=C(C(=O)CCC2)C1(C)C (stereo not drawn) [Cashmeran, 1,2,3,5,6,7-hexahydro-1,1,2,3,3-pentamethyl-4-indenone]
[5]
  inhibition at 0.0012 %: 0%
[6]
  inhibition at 0.0025 %: 0%
[7]
  inhibition at 0.006 %: 19.2%
[8]
  inhibition at 0.0125 %: 54%
[9]
  inhibition at 0.025 %: 71.5%
[10]
  inhibition at 0.05 %: 70.1%
Staphylococcus haemolyticus, CNCMI4170, 0.1 w/v % in medium, read-out: Ingredient Malodor Inhibition Value (%)
  inhibition at 0.1 %: 73.2%

## CC(C)(C)c1ccc(CCC=O)cc1 [Bourgeonal, 3-(4-tert-butylphenyl)propanal]
[5]
  inhibition at 0.0012 %: 4.15%
[6]
  inhibition at 0.0025 %: 7.06%
[7]
  inhibition at 0.006 %: 42.6%

## CC(C)(C)C1CCC(O)CC1 (stereo not drawn) [4-tert-Butyl-1-cyclohexanol]
[5]
  inhibition at 0.0012 %: 0%
[6]
  inhibition at 0.0025 %: 0%
[7]
  inhibition at 0.006 %: 0%
[8]
  inhibition at 0.0125 %: 0%
[9]
  inhibition at 0.025 %: 59.8%
[10]
  inhibition at 0.05 %: 89.1%

## CC1(C)C2CC=C(CCC=O)C1C2 (stereo not drawn) [3-(6,6-Dimethyl-bicyclo[3.1.1]hept-2-en-2-yl)propanal]
[1]
  inhibition at 0.0012 %: 0%
[2]
  inhibition at 0.0025 %: 4.58%
[3]
  inhibition at 0.005 %: 82.9%
[4]
  inhibition at 0.0125 %: 96.7%
[11]
  inhibition at 0.025 %: 100%
[12]
  inhibition at 0.05 %: 96.3%

## CC(C)c1cccc(C(C)CC=O)c1 (stereo not drawn) [3-(3-Isopropyl-1-phenyl)butanal]
[13]
  Ingredient Malodor Inhibition Value (%): 16.63%
[14]
  Ingredient Malodor Inhibition Value (%): 30.10%
Table 2, 0.005 w/v % in medium
  Ingredient Malodor Inhibition Value (%): 73.81%
[15]
  Ingredient Malodor Inhibition Value (%): 95.51%
Table 2, 0.025 w/v % in medium
  Ingredient Malodor Inhibition Value (%): 99.45%
Table 2, 0.05 w/v % in medium
  Ingredient Malodor Inhibition Value (%): 97.34%

## C=CC(C)(O)CCC=C(C)CCC=C(C)C (stereo not drawn) [Nerolidol]
[5]
  inhibition at 0.0012 %: 0%
[6]
  inhibition at 0.0025 %: 6.52%
[7]
  inhibition at 0.006 %: 53.5%
[8]
  inhibition at 0.0125 %: 56.9%
[9]
  inhibition at 0.025 %: 68.5%
[10]
  inhibition at 0.05 %: 66.8%

## O=C1CCCCCCCCCCC(=O)OCCO1 [1,4-Dioxacyclohexadecane-5,16-dione]
[5]
  inhibition at 0.0012 %: 0%
[6]
  inhibition at 0.0025 %: 0%
[7]
  inhibition at 0.006 %: 0%
[8]
  inhibition at 0.0125 %: 28.2%
[9]
  inhibition at 0.025 %: 37.3%
[10]
  inhibition at 0.05 %: 36.5%

## CCC(C)CCCC(C)(C)O (stereo not drawn) [Tetrahydromyrcenol]
0.0012 w/v % in medium
  Ingredient Malodor Inhibition Value (%): 0.00%
0.0025 w/v % in medium
  Ingredient Malodor Inhibition Value (%): 0.00%
0.006 w/v % in medium
  Ingredient Malodor Inhibition Value (%): 0.00%
0.0125 w/v % in medium
  Ingredient Malodor Inhibition Value (%): 0.00%
0.025 w/v % in medium
  Ingredient Malodor Inhibition Value (%): 41.38%
0.05 w/v % in medium
  Ingredient Malodor Inhibition Value (%): 72.56%
0.1 w/v % in medium
  Ingredient Malodor Inhibition Value (%): 66.63%

## CC1=CC2CC(C=O)C1CC2C(C)C (stereo not drawn) [8-Isopropyl-6-methyl-bicyclo[2.2.2]oct-5-ene-2-carbaldehyde]
[1]
  inhibition at 0.0012 %: 18.9%
[2]
  inhibition at 0.0025 %: 28.3%
[3]
  inhibition at 0.005 %: 76.9%
[4]
  inhibition at 0.0125 %: 84.5%
[11]
  inhibition at 0.025 %: 82.9%
[12]
  inhibition at 0.05 %: 88.2%

## CC(C=O)Cc1ccc(C(C)(C)C)cc1 (stereo not drawn) [Lilial ®, 3-(4-tert-butylphenyl)-2-methylpropanal]
[5]
  inhibition at 0.0012 %: 0.9%
[6]
  inhibition at 0.0025 %: 9.47%
[7]
  inhibition at 0.006 %: 37.5%
[8]
  inhibition at 0.0125 %: 81%
[9]
  inhibition at 0.025 %: 90%

## CC1=CC[C@H](C(C)CC=O)CC1 (single isomer, unassigned; (+)) [(+)-(4R)-1-P-Menthene-9-carbaldehyde]
[13]
  Ingredient Malodor Inhibition Value (%): 0.00%
[14]
  Ingredient Malodor Inhibition Value (%): 3.44%
Table 2, 0.005 w/v % in medium
  Ingredient Malodor Inhibition Value (%): 34.61%
[15]
  Ingredient Malodor Inhibition Value (%): 81.68%
Table 2, 0.025 w/v % in medium
  Ingredient Malodor Inhibition Value (%): 97.82%

## CCCCCCCCC=O [Nonanal]
[1]
  inhibition at 0.0012 %: 5.26%
[2]
  inhibition at 0.0025 %: 5.08%
[3]
  inhibition at 0.005 %: 40.2%
[4]
  inhibition at 0.0125 %: 80.4%
[11]
  inhibition at 0.025 %: 94.8%
[12]
  inhibition at 0.05 %: 97.8%

## CC1(C)CCCC2(C)C1CCC1(C)OCCC12 (stereo not drawn) [Ambrox ®, 8,12-epoxy-13,14,15,16-tetranorlabdane]
0.0012 w/v % in medium
  Ingredient Malodor Inhibition Value (%): 0.00%
0.0025 w/v % in medium
  Ingredient Malodor Inhibition Value (%): 0.00%
0.05 w/v % in medium
  Ingredient Malodor Inhibition Value (%): 18.23%
0.1 w/v % in medium
  Ingredient Malodor Inhibition Value (%): 38.00%

## CCCCCCC/C=C/C=O [(E)-2-Decenal]
[1]
  inhibition at 0.0012 %: 22%
[2]
  inhibition at 0.0025 %: 28.2%
[3]
  inhibition at 0.005 %: 66.6%
[4]
  inhibition at 0.0125 %: 90.1%
[11]
  inhibition at 0.025 %: 100%

## Vetyverone
[13]
  Ingredient Malodor Inhibition Value (%): 10.9%
[14]
  Ingredient Malodor Inhibition Value (%): 10.40%
Table 2, 0.005 w/v % in medium
  Ingredient Malodor Inhibition Value (%): 44.6%
Table 2, 0.025 w/v % in medium
  Ingredient Malodor Inhibition Value (%): 47.1%
Table 2, 0.05 w/v % in medium
  Ingredient Malodor Inhibition Value (%): 54.2%

## CCCCCCC/C=C\CCC=O [(Z)-4-Dodecenal]
Staphylococcus haemolyticus, CNCMI4170, Table 2, 0.0006 w/v % in medium, read-out: Ingredient Malodor Inhibition Value (%)
  inhibition at 0.0006 %: 0%
[1]
  inhibition at 0.0012 %: 0%
[2]
  inhibition at 0.0025 %: 6.96%
[3]
  inhibition at 0.005 %: 76.5%
